The results in this text go back to article PMC7529893, “Structural basis for substrate recognition and chemical inhibition of oncogenic MAGE ubiquitin ligases” (Nature Communications, 2020).

The structures appear in SMILES notation.

One assay has as its target T1, MAGE-A11:PCF11 interaction (GST-MAGE-A11 and FAM-PCF11_4) (Homo sapiens, UniProt P43364).
T1 construct: GST-MAGE-A11 MHD (human MAGE-A11 MHD amino acid 218-429); made in house; host or cells: E. coli BL21(DE3)
T1 sequence (P43364 218-429): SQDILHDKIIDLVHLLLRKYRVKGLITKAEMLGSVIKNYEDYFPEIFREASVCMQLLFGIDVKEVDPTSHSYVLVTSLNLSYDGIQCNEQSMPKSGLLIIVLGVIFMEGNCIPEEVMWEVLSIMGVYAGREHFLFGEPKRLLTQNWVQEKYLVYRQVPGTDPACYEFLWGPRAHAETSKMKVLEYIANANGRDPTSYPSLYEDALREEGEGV
In words: TR-FRET primary / single point screen at 15 µM. Particulars: single point TR-FRET screening of 797 quinoline compounds against MAGE-A11:PCF11. Format: binding. An outline of the steps:
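TR-FRET 520/490 nm emission ratio was read after 90 min at room temperature. Wells held 5 nM GST-MAGE-A11, 5 nM Tb-anti-GST, 200 nM FAM-PCF11_4 and 15 µM compound in Tris pH 7.5 buffer with MgCl2, BSA and DTT. %Inhibition was scaled to DMSO and minus-MAGE-A11 controls.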
Take `Clc1ccc2c(NCCCCN(Cc3ccccc3)Cc3ccco3)ccnc2c1` [SJ000312681]: the “percent inhibition (TR-FRET)” value stood at 12.0487.
Same read-out and setting: for `Cc1ccc(CN(CCCCNc2ccnc3cc(Cl)ccc23)Cc2ccccc2)o1` [SJ000312682] the value was 2.013.
As for `Clc1ccc2c(NCCCCN(Cc3ccccc3)Cc3ccc(Br)o3)ccnc2c1` [SJ000312684], the “percent inhibition (TR-FRET)” value was 14.9636.
On the same count and under the same terms, to `Clc1ccc2c(NCCCCN(Cc3ccccc3)Cc3ccoc3)ccnc2c1` [SJ000312685] belongs 14.8973; to `Clc1ccc2c(NCCCCN(Cc3ccccc3)Cc3cccs3)ccnc2c1` [SJ000312686], 25.0481.
On the same count and under the same terms, to `Cc1ccc(CN(CCCCNc2ccnc3cc(Cl)ccc23)Cc2ccccc2)s1` [SJ000312687] belongs 20.7072.
On the same count and under the same terms, to `Clc1ccc2c(NCCCCN(Cc3ccccc3)Cc3ccc(Br)s3)ccnc2c1` [SJ000312688] belongs 22.0375; to `Clc1ccc2c(NCCCCN(Cc3ccccc3)Cc3ccsc3)ccnc2c1` [SJ000312689], 16.2962; to `Clc1ccc2c(NCCCCN(Cc3ccccc3)Cc3ccccn3)ccnc2c1` [SJ000312690], 9.5313.
For the molecule `Clc1ccc2c(NCCCCN(Cc3ccccc3)Cc3ccc[nH]3)ccnc2c1` [SJ000312692], the “percent inhibition (TR-FRET)” value worked out at 28.2792.
Still for that read-out and setting: for `COc1cccc(CN(CCCCNc2ccnc3cc(Cl)ccc23)Cc2ccccc2)c1O` [SJ000312694] the value was 7.676; for `COc1ccc(O)c(CN(CCCCNc2ccnc3cc(Cl)ccc23)Cc2ccccc2)c1` [SJ000312696], 6.634; for `Oc1ccccc1CN(CCCCNc1ccnc2cc(Cl)ccc12)Cc1ccccc1` [SJ000312697], 24.8344.
Same read-out and setting: for `COc1ccccc1N1CCN(c2c(S(=O)(=O)c3ccccc3)cnc3ccc(C)cc23)CC1` [SJ000315081] the value was -19.5512; for `Cc1ccc2ncc(S(=O)(=O)c3ccccc3)c(N3CCN(c4ccccc4F)CC3)c2c1` [SJ000315092], -33.4837; for `O=S(=O)(c1ccccc1)c1cnc2ccc(F)cc2c1N1CCN(c2ccccc2F)CC1` [SJ000315166], -99.0552.
Turning to `O=S(=O)(c1ccccc1)c1cnc2ccc(Cl)cc2c1N1CCN(c2ccccc2F)CC1` [SJ000315176], the “percent inhibition (TR-FRET)” value is -5.441.
On the same count and under the same terms, to `COc1ccc2ncc(S(=O)(=O)c3ccccc3)c(N3CCN(c4ccccc4F)CC3)c2c1` [SJ000315263] belongs -252.464; to `CCCCN(CCCC)CC(=O)Nc1c2c(nc3ccccc13)N(C)CC2` [SJ000331523], 2.503.
The same measure, in the same setting: to `CCN(CC)CC(=O)Nc1c2c(nc3ccccc13)N(C)CC2` [SJ000331537] belongs 11.7837; to `CN(C)CC(=O)Nc1c2c(nc3ccccc13)N(C)CC2` [SJ000332030], 17.0397.

The assay is the same for the next values; noted with them: single point TR-FRET screening of quinoline compounds against MAGE-A11:PCF11; 15 µM.
On to `CC(C)(C)c1ccc(Oc2ccc3c(NCCCNCc4ccco4)ccnc3c2)cc1` [SJ000311234], for which the “percent inhibition (TR-FRET)” value came out at 57.5354.
For the molecule `Fc1ccc(-c2ccc3c(NCCCNCc4ccco4)ccnc3c2)cc1` [SJ000311238], the “percent inhibition (TR-FRET)” value turned out to be 27.4287.
On the same count and under the same terms, for `CC(C)CCc1ccc2c(NCCCNCc3ccco3)ccnc2c1` [SJ000311246] the value was 13.0054; for `c1coc(CNCCCNc2ccnc3cc(CC4CCCCC4)ccc23)c1` [SJ000311250], 40.6616; for `c1ccc(CCc2ccc3c(NCCCNCc4ccco4)ccnc3c2)cc1` [SJ000311254], 15.9461.
Same read-out and setting: to `CC(C)Cc1ccc2c(NCCCNCc3ccco3)ccnc2c1` [SJ000311258] belongs 8.8745.
Still for that read-out and setting: for `c1coc(CNCCCNc2ccnc3cc(C4CCCCC4)ccc23)c1` [SJ000311262] the value was 32.9599.
As for `CCC(CC)c1ccc2c(NCCCNCc3ccco3)ccnc2c1` [SJ000311266], the “percent inhibition (TR-FRET)” value worked out at 24.558.
The same measure, in the same setting: for `FC(F)(F)c1cc(-c2ccc3c(NCCCNCc4ccco4)ccnc3c2)cc(C(F)(F)F)c1` [SJ000311270] the value was 59.7059; for `c1coc(CNCCCNc2ccnc3cc(-c4cccc5ccccc45)ccc23)c1` [SJ000311274], 41.5719.
Same read-out and setting: to `FC(F)(F)c1ccc(-c2ccc3c(NCCCNCc4ccco4)ccnc3c2)cc1` [SJ000311278] belongs 56.2051; to `c1ccc(-c2ccc3c(NCCCNCc4ccco4)ccnc3c2)cc1` [SJ000311282], 28.689; to `CC(C)(C)c1ccc(-c2ccc3c(NCCCNCc4ccco4)ccnc3c2)cc1` [SJ000311286], 73.499.
Same read-out and setting: to `c1coc(CNCCCNc2ccnc3cc(-c4ccc5c(c4)OCO5)ccc23)c1` [SJ000311290] belongs 30.7894; to `COc1ccc(-c2ccc3c(NCCCNCc4ccco4)ccnc3c2)cc1` [SJ000311294], 7.824; to `FC(F)(F)c1cccc(Cc2ccc3c(NCCCNCc4ccco4)ccnc3c2)c1` [SJ000311298], 27.0086.
Regarding `N#Cc1ccc(Cc2ccc3c(NCCCNCc4ccco4)ccnc3c2)cc1` [SJ000311302], the “percent inhibition (TR-FRET)” value is on record as 20.4271.
Still for that read-out and setting: to `c1ccc(Cc2ccc3c(NCCCNCc4ccco4)ccnc3c2)cc1` [SJ000311306] belongs 64.537; to `COc1cc(Cc2ccc3c(NCCCNCc4ccco4)ccnc3c2)cc(OC)c1` [SJ000311310], 23.7879; to `Clc1cccc(Cl)c1Cc1ccc2c(NCCCNCc3ccco3)ccnc2c1` [SJ000311314], 32.3998.
On the same count and under the same terms, to `Cc1cc(C)cc(Cc2ccc3c(NCCCNCc4ccco4)ccnc3c2)c1` [SJ000311318] belongs 39.3055.
Take `Fc1ccc(Cc2ccc3c(NCCCNCc4ccco4)ccnc3c2)c(Cl)c1` [SJ000311322]: the “percent inhibition (TR-FRET)” value was 24.7681.
With `Cc1ccc(CNCCCNc2ccnc3cc(Cl)ccc23)o1` [SJ000311326], the “percent inhibition (TR-FRET)” value was found to be 10.2048.
For the molecule `Clc1ccc2c(NCCCN(Cc3ccccc3)Cc3ccco3)ccnc2c1` [SJ000312668], the “percent inhibition (TR-FRET)” value is recorded as 0.5217.
Still for that read-out and setting: for `Cc1ccc(CN(CCCNc2ccnc3cc(Cl)ccc23)Cc2ccccc2)o1` [SJ000312669] the value was 2.84; for `Clc1ccc2c(NCCCN(Cc3ccccc3)Cc3ccc(Br)o3)ccnc2c1` [SJ000312671], -1.797.
Same read-out and setting: to `Clc1ccc2c(NCCCN(Cc3ccccc3)Cc3cccs3)ccnc2c1` [SJ000312672] belongs 4.744; to `Cc1ccc(CN(CCCNc2ccnc3cc(Cl)ccc23)Cc2ccccc2)s1` [SJ000312673], 4.629.
On the same count and under the same terms, to `Clc1ccc2c(NCCCN(Cc3ccccc3)Cc3ccsc3)ccnc2c1` [SJ000312675] belongs 9.598; to `Clc1ccc2c(NCCCN(Cc3ccccc3)Cc3nccs3)ccnc2c1` [SJ000312676], -4.148.
As to `Clc1ccc2c(NCCCN(Cc3ccccc3)Cc3ccccn3)ccnc2c1` [SJ000312678], the “percent inhibition (TR-FRET)” value is -3.851.
Same read-out and setting: to `Clc1ccc2c(NCCCN(Cc3ccccc3)Cc3ccncc3)ccnc2c1` [SJ000312679] belongs -5.573.
Take `CCCN(CCCNc1ccnc2cc(Cl)ccc12)Cc1ccccc1` [SJ000357431]: the “percent inhibition (TR-FRET)” value was 19.1371.
Still for that read-out and setting: for `CCCN(CCCNc1ccnc2cc(Cl)ccc12)Cc1ccc(C)s1` [SJ000357433] the value was 16.5062; for `CCCN(CCCNc1ccnc2cc(Cl)ccc12)Cc1ccc(C)o1` [SJ000357437], 20.147.
Still for that read-out and setting: for `CCCN(CCCNc1ccnc2cc(Cl)ccc12)Cc1sccc1C` [SJ000357439] the value was 19.7269; for `Cc1ccsc1CN(CCCNc1ccnc2cc(Cl)ccc12)Cc1ccccc1` [SJ000357440], 10.905.
The same measure, in the same setting: for `CCCN(CCCNc1ccnc2cc(Cl)ccc12)Cc1ccoc1` [SJ000357442] the value was 6.2139.
Regarding `CCCN(CCCNc1ccnc2cc(Cl)ccc12)Cc1ccc[nH]1` [SJ000357445], the “percent inhibition (TR-FRET)” value amounted to 10.3448.
As to `CCCN(CCCNc1ccnc2cc(Cl)ccc12)Cc1cccnc1` [SJ000357446], the “percent inhibition (TR-FRET)” value was 7.809.
Same read-out and setting: for `CCCN(CCCNc1ccnc2cc(Cl)ccc12)Cc1ccncc1` [SJ000357449] the value was 9.295.
Still for that read-out and setting: to `CCCN(CCCNc1ccnc2cc(Cl)ccc12)Cc1nccs1` [SJ000357454] belongs 11.9552; to `CCCN(CCCNc1ccnc2cc(Cl)ccc12)Cc1ccco1` [SJ000357458], 3.483.
Still for that read-out and setting: to `Clc1ccc2c(NCCCN(Cc3ccccc3)Cc3ccc(Br)s3)ccnc2c1` [SJ000357461] belongs 27.4987; to `COc1ccc(O)c(CN(CCCNc2ccnc3cc(Cl)ccc23)Cc2ccccc2)c1` [SJ000357463], 14.1686.
On to `COc1cccc(CN(CCCNc2ccnc3cc(Cl)ccc23)Cc2ccccc2)c1O` [SJ000357465], for which the “percent inhibition (TR-FRET)” value came out at 13.1749.
